For this assay, the target named is TNFα trimer (Homo sapiens, UniProt P01375). Kind of assay: TNFα FP Competitive Binding Assay. The conditions noted are these: FP binding assay; 20 nM TNFα trimer, 1 nM OregonGreen488 probe; read-out: TNF IC50. The method, boiled down:
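Fluorescence polarization competition: 20 nM TNFα trimer with 1 nM fluorescein-labelled probe in HEPES/NaCl/EDTA/Triton X-100 buffer, compound in 12-point 1:3 dilutions (final top 338 μM or 100 μM). Incubated 18-24 h, background-subtracted mP read, variable-slope dose-response fitting.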

Here are results for 21 molecules from US10160748B2 (AbbVie Inc., priority 2015, dated 2018).

TNFα trimer, sequence (P01375 77-233 limits assumed): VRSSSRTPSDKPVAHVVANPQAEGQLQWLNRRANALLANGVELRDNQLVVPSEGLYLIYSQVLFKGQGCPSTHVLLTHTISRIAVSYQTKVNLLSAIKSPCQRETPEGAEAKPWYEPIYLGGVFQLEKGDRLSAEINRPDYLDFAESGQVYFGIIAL

Take `Cn1c(=O)c2cc(F)c(-c3cnc(C(C)(C)O)nc3)cc2n1Cc1cc(CC#N)ccc1OC(F)F` [Example 100, 2-(4-(Difluoromethoxy)-3-((5-fluoro-6-(2-(2-hydroxypropan-2-yl)pyrimidin-5-yl)-2-methyl-3-oxo-2,3-dihydro-1H-indazol-1-yl)methyl)phenyl)acetonitrile]: the IC50 is 1 to 10 µM. The same measure for `CC(=O)N1CCN(c2ncc(-c3ccc4c(=O)n(C)n(Cc5cc(Cn6ccc(=O)[nH]6)ccc5OC(F)F)c4c3)cn2)C[C@H]1C` [Example 101, (R)-6-(2-(4-Acetyl-3-methylpiperazin-1-yl)pyrimidin-5-yl)-1-(2-(difluoromethoxy)-5-((3-oxo-2,3-dihydro-H-pyrazol-1-yl)methyl)benzyl)-2-methyl-1,2-dihydro-3H-indazol-3-one]: 1 to 10 µM. The value for `CC(=O)N1CCN(c2ncc(-c3ccc4c(=O)n(C)n(Cc5cc(COc6ccn[nH]6)ccc5OC(F)F)c4c3)cn2)C[C@H]1C` [Example 102] was less than 1 µM. The same measure for `Cc1ccc(Cl)c(Cn2c3cc(-c4cnc(N5CCN6C(=O)NC[C@H]6C5)nc4)ccc3c(=O)n2C)c1` [Example 103, (S)-7-(5-(1(2-Chloro-5-methylbenzyl)-2-methyl-3-oxo-2,3-dihydro-1H-indazol-6-yl)pyrimidin-2-yl)hexahydroimidazo[1,5-a]pyrazin-3(2H)-one]: less than 1 µM; for `Cn1c(=O)c2ccc(-c3cnc(C(C)(C)O)nc3)cc2n1Cc1cc(Cn2cncn2)ccc1OC(F)F` [Example 104]: less than 1 µM.

As for `CC(=O)N1CCN(c2ncc(-c3ccc4c(=O)n(C)n(Cc5nc(C)ccc5Cl)c4c3)cn2)C[C@H]1C` [Example 105, (R)-6-(2-(4-Acetyl-3-methylpiperazin-1-yl)pyrimidin-5-yl)-1-((3-chloro-6-methylpyridin-2-yl)methyl)-2-methyl-1,2-dihydro-3H-indazol-3-one], the IC50 is less than 1 µM. The value for `CN1CCC(Nc2ccc(Cl)c(Cn3c4cc(-c5cnc(C(C)(C)O)nc5)ccc4c(=O)n3C)c2)C1=O` (stereo not drawn) [Example 109, 1-(2-Chloro-5-((1-methyl-2-oxopyrrolidin-3-yl)amino)benzyl)-6-(2-(2-hydroxypropan-2-yl)pyrimidin-5-yl)-2-methyl-1H-indazol-3(2H)-one] was 1 to 10 µM. The same measure for `CC(=O)N1CCN(c2ncc(-c3ccc4c(=O)n(C)n(Cc5cc(Cc6cn[nH]c6)ccc5OC(F)F)c4c3)cn2)C[C@H]1C` [Example 110, (R)-1-(5-((1H-Pyrazol-4-yl)methyl)-2-(difluoromethoxy)benzyl)-6-(2-(4-acetyl-3-methylpiperazin-1-yl)pyrimidin-5-yl)-2-methyl-1H-indazol-3(2H)-one]: less than 1 µM. The same measure for `Cn1c(=O)c2ccc(-c3cnc(C(C)(C)O)nc3)cc2n1Cc1cc(Cc2cn[nH]c2)ccc1OC(F)F` [Example 111, 1-(5-((1H-Pyrazol-4-yl)methyl)-2-(difluoromethoxy)benzyl)-6-(2-(2-hydroxypropan-2-yl)pyrimidin-5-yl)-2-methyl-1H-indazol-3(2H)-one]: less than 1 µM; for `Cn1c(=O)c2ccc(-c3cnc(N4CCN5C(=O)NC[C@@H]5C4)nc3)cc2n1Cc1cc(Cn2cncn2)ccc1OC(F)F` [Example 113, (R)-7-(5-(1-(5-((1H-1,2,4-Triazol-1-yl)methyl)-2-(difluoromethoxy)benzyl)-2-methyl-3-oxo-2,3-dihydro-1H-indazol-6-yl)pyrimidin-2-yl)hexahydroimidazo[1,5-a]pyrazin-3(2H)-one]: less than 1 µM.

Turning to `CC(=O)N1CCN(c2ncc(-c3ccc4c(=O)n(C)n(Cc5cc(CC(C)O)ccc5OC(F)F)c4c3)cn2)C[C@H]1C` (stereo partly drawn) [Example 114, 6-(2-((R)-4-Acetyl-3-methylpiperazin-1-yl)pyrimidin-5-yl)-1-(2-(difluoromethoxy)-5-(2-hydroxypropyl)benzyl)-2-methyl-1H-indazol-3(2H)-one], the IC50 lay within 1 to 10 µM. The value for `CC(=O)N1CCN(c2ncc(-c3ccc4c(=O)n(C)n(Cc5cc(CO)ccc5C(F)(F)F)c4c3)cn2)CC1` [Example 115, 6-(2-(4-Acetylpiperazin-1-yl)pyrimidin-5-yl)-1-(5-(hydroxymethyl)-2-(trifluoromethyl)benzyl)-2-methyl-1H-indazol-3(2H)-one] was less than 1 µM; that for `Cc1cccc(C(C)n2c3cc(-c4cnc(N5CCN(C(=O)CO)[C@H](C)C5)nc4)ccc3c(=O)n2C)c1` (stereo partly drawn) [Example 116, 6-(2-((R)-4-(2-hydroxyacetyl)-3-methylpiperazin-1-yl)pyrimidin-5-yl)-2-methyl-1-(1-(m-tolyl)ethyl)-1H-indazol-3(2H)-one] was less than 1 µM; that for `CC(=O)N1CCN(c2ncc(-c3ccc4c(=O)n(C)n(Cc5cn(C(C)=O)cc5C(F)(F)F)c4c3)cn2)C[C@H]1C` [Example 119, (R)-6-(2-(4-Acetyl-3-methylpiperazin-1-yl)pyrimidin-5-yl)-1-((1-acetyl-4-(trifluoromethyl)-1H-pyrrol-3-yl)methyl)-2-methyl-1H-indazol-3(2H)-one] was less than 1 µM.

Turning to `Cc1ccc(OC(F)F)c(Cn2c3cc(-c4cnc(C(C)(C)N)nc4)ccc3c(=O)n2C)c1` [Example 120, 6-(2-(2-Aminopropan-2-yl)pyrimidin-5-yl)-1-(2-(difluoromethoxy)-5-methylbenzyl)-2-methyl-1H-indazol-3(2H)-one], the IC50 was less than 1 µM.

Regarding `C[C@@H]1CN(C(=O)CO)CCN1c1ncc(-c2ccc3c(=O)n(C)n(Cc4ccccc4OC(F)F)c3c2F)cn1` [Example 121, (R)-1-(2-(Difluoromethoxy)benzyl)-7-fluoro-6-(2-(4-(2-hydroxyacetyl)-2-methylpiperazin-1-yl)pyrimidin-5-yl)-2-methyl-1H-indazol-3(2H)-one], the IC50 is less than 1 µM. The same measure for `Cn1c(=O)c2ccc(-c3cnc(C(C)(C)O)nc3)cc2n1Cc1cc(NCC(C)(C)O)ccc1Cl` [Example 122, 1-(2-Chloro-5-((2-hydroxy-2-methylpropyl)amino)benzyl)-6-(2-(2-hydroxypropan-2-yl)pyrimidin-5-yl)-2-methyl-1H-indazol-3(2H)-one]: 1 to 10 µM; for `Cn1cc(Cn2c3cc(-c4cnc(N5CCN6C(=O)NC[C@H]6C5)nc4)ccc3c(=O)n2C)c(C(F)(F)F)c1` [Example 123, (S)-7-(5-(2-Methyl-1-((1-methyl-4-(trifluoromethyl)-1H-pyrrol-3-yl)methyl)-3-oxo-2,3-dihydro-1H-indazol-6-yl)pyrimidin-2-yl)hexahydroimidazo[1,5-a]pyrazin-3(2H)-one]: less than 1 µM. The same measure for `Cc1ccc(OC(F)F)c(Cn2c3cc(-c4cnc(C(C)C)nc4)ccc3c(=O)n2C)c1` [Example 124, 1-(2-(Difluoromethoxy)-5-methylbenzyl)-6-(2-isopropylpyrimidin-5-yl)-2-methyl-1H-indazol-3(2H)-one]: less than 1 µM; for `Cn1c(=O)c2ccc(-c3cnc(C(C)(C)O)nc3)cc2n1Cc1cc(N2CCOCC2)ccc1OC(F)F` [Example 125, 1-(2-(Difluoromethoxy)-5-morpholinobenzyl)-6-(2-(2-hydroxypropan-2-yl)pyrimidin-5-yl)-2-methyl-1H-indazol-3(2H)-one]: 1 to 10 µM.

As for `C[C@@H]1CN(C(=O)CO)CCN1c1ncc(-c2cc3c(cc2F)c(=O)n(C)n3Cc2ccccc2OC(F)F)cn1` [Example 126, (R)-1-(2-(Difluoromethoxy)benzyl)-5-fluoro-6-(2-(4-(2-hydroxyacetyl)-2-methylpiperazin-1-yl)pyrimidin-5-yl)-2-methyl-1H-indazol-3(2H)-one], the concentration for half-maximal inhibition (IC50) is less than 1 µM.

In general, IC50 refers to the midpoint of a concentration-inhibition curve.
